Experimental data reported in patent publication US9556165B2 (priority 2012, dated 2017).
Values after ≈ are worked out from the molar mass of the structure shown. Read-outs that look alike come from different tables or passages of the source.

Assays:
Assay type in all cases: cell-based
[1] = tested on: E. coli J62-TEM-3; assay: MIC determination, broth microdilution (CLSI); conditions: Escherichia coli, J62TEM3, read-out: MIC strain 18 (E. coli J62-TEM-3), strain 18; broth microdilution
[2] = tested on: C. freundii K21/3034; assay: MIC determination, broth microdilution (CLSI); conditions: for MIC: Citrobacter freundii, K21/3034, strain 4
[3] = tested on: B. fragilis 6688; assay: MIC determination, broth microdilution (CLSI); conditions: Bacteroides fragilis, 6688, strain 15; broth microdilution; read-out: MIC strain 15 (B. fragilis 6688)
[4] = tested on: C. perfringens DSM756; assay: microbe, parasite or virus in culture; conditions: Clostridium perfringens, DSM756, read-out: MIC strain 16 (C. perfringens DSM756), strain 16; broth microdilution
[5] = tested on: H. influenzae ATCC 49247; assay: MIC determination, broth microdilution (CLSI); conditions: Haemophilus influenzae, ATCC49247, strain 12; broth microdilution; read-out: MIC strain 12 (H. influenzae ATCC 49247)
[6] = tested on: M. morganii 126/3048; assay: MIC determination, broth microdilution (CLSI); conditions: Morganella morganii, 126/3048, strain 5
[7] = tested on: S. pneumoniae 113; assay: MIC determination, broth microdilution (CLSI); conditions: Streptococcus pneumoniae, 113, strain 13; broth microdilution; read-out: MIC strain 13 (S. pneumoniae 113)
[8] = tested on: E. coli J62; assay: MIC determination, broth microdilution (CLSI); conditions: broth microdilution; for MIC: Escherichia coli, J62, strain 17, read-out: MIC strain 17 (E. coli J62)
[9] = tested on: S. maltophilia ICB7569; assay: MIC determination, broth microdilution (CLSI); conditions: for MIC: Stenotrophomonas maltophilia, ICB7569, strain 10
[10] = tested on: E. coli ATCC25922; assay: MIC determination, broth microdilution (CLSI); conditions: for MIC: Escherichia coli, ATCC25922, strain 1
[11] = tested on: S. aureus 133; assay: MIC determination, broth microdilution (CLSI)
[12] = tested on: A. baumannii ATCC15308; assay: MIC determination, broth microdilution (CLSI); conditions: for MIC: Acinetobacter baumannii, ATCC15308, strain 9
[13] = tested on: P. aeruginosa 2297 (AmpC wt); assay: MIC determination, broth microdilution (CLSI); conditions: for MIC: Pseudomonas aeruginosa, strain 7
[14] = tested on: Bacteria; assay: MIC determination in combination with β-lactamase inhibitors (constant 4 μg/mL)
[15] = tested on: K. pneumoniae 60; assay: MIC determination, broth microdilution (CLSI); conditions: for MIC: Klebsiella pneumoniae, 60, strain 2
[16] = tested on: P. aeruginosa 2297-con (AmpC derepressed); assay: MIC determination, broth microdilution (CLSI); conditions: for MIC: Pseudomonas aeruginosa, read-out: strain 8 MIC, strain 8
[17] = tested on: E. cloacae 34654; assay: MIC determination, broth microdilution (CLSI); conditions: for MIC: Enterobacter cloacae, 34654, strain 3
[18] = tested on: P. aeruginosa PAO1; assay: MIC determination, broth microdilution (CLSI); conditions: for MIC: Pseudomonas aeruginosa, PAO1, strain 6
[19] = Staphylococcus aureus, 133, strain 14, broth microdilution, read-out: MIC strain 14 (S. aureus 133)
[20] = Staphylococcus aureus, 133, strain 11, read-out: strain 11 MIC

SMILES	MIC [1]	MIC [2]	MIC [3]	MIC [4]	MIC [5]	MIC [6]	MIC [7]	MIC [8]	MIC [9]	MIC [10]	MIC [11, 19]	MIC [12]	MIC [13]	MIC strain 19 (E. coli J62-TEM-3 + 4 μg/mL clavulanic acid) [14]	MIC strain 20 (E. coli J62-TEM-3 + 4 μg/mL sulbactam) [14]	MIC strain 21 (E. coli J62-TEM-3 + 4 μg/mL tazobactam) [14]	MIC [15]	MIC [16]	MIC [17]	MIC [18]	also measured
CC1(C)[C@H](NC(=O)/C(=N\OC(COc2ccc(C(=N)NC3CCCNC3)cc2)C(=O)O)c2csc(N)n2)C(=O)N1OS(=O)(=O)O (stereo in doubt) [Example 89, (2R)-2-({[(1Z)-1-(2-Amino-1,3-thiazol-4-yl)-2-{[(3S)-2,2-dimethyl-4-oxo-1-(sulfooxy)-azetidin-3-yl]amino}-2-oxoethylidene]amino}oxy)-3-(4-{N-[(3R)-piperidin-3-yl]carbamimidoyl}phenoxy)propanoic acid]	4 µg/mL (≈ 5.98 µM)	0.125 µg/mL (≈ 0.187 µM)	8 µg/mL (≈ 12 µM)	1 µg/mL (≈ 1.5 µM)	≤ 0.063 µg/mL	≤ 0.063 µg/mL	0.5 µg/mL (≈ 0.748 µM)	0.125 µg/mL (≈ 0.187 µM)	4 µg/mL (≈ 5.98 µM)	0.125 µg/mL (≈ 0.187 µM)	32 µg/mL (≈ 47.9 µM)	1 µg/mL (≈ 1.5 µM)	1 µg/mL (≈ 1.5 µM)	≦0.063 mg/L	≦0.063 mg/L	0.125 µg/mL	0.25 µg/mL (≈ 0.374 µM)	1 µg/mL (≈ 1.5 µM)	0.125 µg/mL (≈ 0.187 µM)	1 µg/mL (≈ 1.5 µM)	–
Cc1sc(C(=N)N)nc1OCCO/N=C(\C(=O)N[C@@H]1C(=O)N(OS(=O)(=O)O)C1(C)C)c1csc(N)n1 [Example 74, (2Z)-2-(2-Amino-1,3-thiazol-4-yl)-2-({2-[(2-carbamimidoyl-5-methyl-1,3-thiazol-4-yl)oxy]ethoxy}imino)-N-[(3S)-2,2-dimethyl-4-oxo-1-(sulfooxy)azetidin-3-yl]ethanamide]	16 µg/mL (≈ 28.4 µM)	1 µg/mL (≈ 1.78 µM)	2 µg/mL (≈ 3.55 µM)	2 µg/mL (≈ 3.55 µM)	0.25 µg/mL (≈ 0.444 µM)	1 µg/mL (≈ 1.78 µM)	≤ 0.063 µg/mL	4 µg/mL (≈ 7.11 µM)	16 µg/mL (≈ 28.4 µM)	1 µg/mL (≈ 1.78 µM)	32 µg/mL (≈ 56.9 µM)	2 µg/mL (≈ 3.55 µM)	32 µg/mL (≈ 56.9 µM)	1 µg/mL	1 µg/mL	2 µg/mL	2 µg/mL (≈ 3.55 µM)	32 µg/mL (≈ 56.9 µM)	4 µg/mL (≈ 7.11 µM)	16 µg/mL (≈ 28.4 µM)	MIC [11, 20]: ≤ 0.063 µg/mL
CC1(C)[C@H](NC(=O)/C(=N\OCCOc2ccc(C(=N)NC3CNNC3)cc2)c2csc(N)n2)C(=O)N1OS(=O)(=O)O [Example 92]	32 µg/mL (≈ 52.3 µM)	0.5 µg/mL (≈ 0.817 µM)	8 µg/mL (≈ 13.1 µM)	2 µg/mL (≈ 3.27 µM)	0.125 µg/mL (≈ 0.204 µM)	0.5 µg/mL (≈ 0.817 µM)	≤ 0.063 µg/mL	1 µg/mL (≈ 1.63 µM)	32 µg/mL (≈ 52.3 µM)	0.5 µg/mL (≈ 0.817 µM)	8 µg/mL (≈ 13.1 µM)	4 µg/mL (≈ 6.54 µM)	8 µg/mL (≈ 13.1 µM)	0.5 µg/mL	0.5 µg/mL	0.5 µg/mL	0.5 µg/mL (≈ 0.817 µM)	8 µg/mL (≈ 13.1 µM)	1 µg/mL (≈ 1.63 µM)	8 µg/mL (≈ 13.1 µM)	MIC [11, 20]: ≤ 0.063 µg/mL
CC1(C)[C@H](NC(=O)/C(=N\O[C@@H](COc2ccc(C(=N)NC3CC3N)cc2)C(=O)O)c2csc(N)n2)C(=O)N1OS(=O)(=O)O (single isomer, unassigned) [Example 100A]	32 µg/mL (≈ 49.9 µM)	–	8 µg/mL (≈ 12.5 µM)	2 µg/mL (≈ 3.12 µM)	≤ 0.063 µg/mL	≤ 0.063 µg/mL	0.5 µg/mL (≈ 0.78 µM)	–	–	–	–	–	–	0.125 µg/mL	0.125 µg/mL	0.25 µg/mL	–	–	–	–	strain 4 MIC ([2]; strain 4): 0.125 µg/mL; MIC strain 17 (E. coli J62) ([8]; strain 17): 0.25 µg/mL (≈ 0.39 µM); strain 10 MIC ([9]; strain 10): 8 µg/mL; strain 1 MIC ([10]; strain 1): 0.125 µg/mL; MIC [11, 20]: ≤ 0.063 µg/mL; strain 9 MIC ([12]; strain 9): 8 µg/mL; strain 7 MIC [13]: 4 µg/mL; strain 2 MIC ([15]; strain 2): 0.25 µg/mL; strain 8 MIC ([16]; strain 8): 4 µg/mL; strain 3 MIC ([17]; strain 3): 0.125 µg/mL; strain 6 MIC ([18]; strain 6): 2 µg/mL
C[C@H]1[C@H](NC(=O)/C(=N\OCCOc2ccc(C(=N)N)cc2)c2nc(N)sc2Cl)C(=O)N1S(=O)(=O)O [Example 61, (2S,3S)-3-{[(2Z)-2-(2-Amino-5-chloro-1,3-thiazol-4-yl)-2-{[2-(4-carbamimidoylphenoxy)ethoxy]imino}acetyl]amino}-2-methyl-4-oxoazetidine-1-sulfonic acid]	8 µg/mL (≈ 14.7 µM)	1 µg/mL (≈ 1.83 µM)	8 µg/mL (≈ 14.7 µM)	8 µg/mL (≈ 14.7 µM)	0.25 µg/mL (≈ 0.458 µM)	0.5 µg/mL (≈ 0.916 µM)	≤ 0.063 µg/mL	2 µg/mL (≈ 3.66 µM)	16 µg/mL (≈ 29.3 µM)	2 µg/mL (≈ 3.66 µM)	8 µg/mL (≈ 14.7 µM)	2 µg/mL (≈ 3.66 µM)	2 µg/mL (≈ 3.66 µM)	2 µg/mL	2 µg/mL	2 µg/mL	2 µg/mL (≈ 3.66 µM)	16 µg/mL (≈ 29.3 µM)	2 µg/mL (≈ 3.66 µM)	2 µg/mL (≈ 3.66 µM)	MIC [11, 20]: ≤ 0.063 µg/mL
CC1(C)[C@H](NC(=O)/C(=N\O[C@@H](COc2ccc(C(=N)NC3CCNCC3)cc2)C(=O)O)c2csc(N)n2)C(=O)N1OS(=O)(=O)O [Example 108, (2S)-2-({[(1Z)-1-(2-Amino-1,3-thiazol-4-yl)-2-{[(3S)-2,2-dimethyl-4-oxo-1-(sulfooxy)-azetidin-3-yl]amino}-2-oxoethylidene]amino}oxy)-3-{4-[N-(piperidin-4-yl)carbamimidoyl]phenoxy}propanoic acid]	4 µg/mL (≈ 5.98 µM)	≤ 0.063 µg/mL	8 µg/mL (≈ 12 µM)	1 µg/mL (≈ 1.5 µM)	≤ 0.063 µg/mL	≤ 0.063 µg/mL	0.5 µg/mL (≈ 0.748 µM)	0.125 µg/mL (≈ 0.187 µM)	4 µg/mL (≈ 5.98 µM)	0.125 µg/mL (≈ 0.187 µM)	32 µg/mL (≈ 47.9 µM)	1 µg/mL (≈ 1.5 µM)	1 µg/mL (≈ 1.5 µM)	≦0.063 mg/L	≦0.063 mg/L	0.125 µg/mL	0.125 µg/mL (≈ 0.187 µM)	1 µg/mL (≈ 1.5 µM)	0.125 µg/mL (≈ 0.187 µM)	0.5 µg/mL (≈ 0.748 µM)	MIC [11, 20]: ≤ 0.063 µg/mL
